The values that follow come from patent publication US20180214428A1, “3-(1H-INDOL-2-YL)-1H-PYRAZOLO[3,4-B]PYRIDINES AND THERAPEUTIC USES THEREOF” (Samumed, LLC, priority 2015, published 2018).

Each structure is given as a SMILES string. pEC50: −log10 of the molar value.

Assay [1] concerns primary human fibroblasts derived from IPF patients (LL29 cells). In words: Inhibition of the fibrotic process: αSMA staining in TGF-β1 treated LL29 fibroblasts. It counts as cell-based. The following applies: Homo sapiens, Fibroblast; for pEC50: 96 h, TGF-β1 20 ng/mL, 4 days, % αSMA positive cells; for inhibition at 10 µM: given for EC50 of >10 μM, TGF-β1, αSMA, read-out: percent inhibition at 10 μM. The method, boiled down: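 IPF patient-derived LL29 fibroblasts in 1% FBS medium got compound (11-point, 10 μM to 1.87 nM, 0.1% DMSO) plus TGF-β1 20 ng/mL, 4 days at 37° C. αSMA-positive live cells (SYTOX-excluded) were imaged, normalized to TGF-β1 controls and fitted for EC50; % inhibition at 10 μM given when EC50 >10 μM.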

The test system of the next assay is SW480 colon cancer cells. In words: Cell viability assay (CellTiter-Blue) in SW480 colon cancer cells. The following applies: Homo sapiens; for pEC50: 96 h, four days, CellTiter-Blue; for inhibition at 10 µM: given for EC50 of >10 μM, read-out: percent inhibition at 10 μM. It counts as cell-based, human. Put shortly:
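4-day exposure, 37 °C/5% CO2; ~2×10^3 SW480 cells/well; 8-pt 1:3 curve, 10–0.0045 μM, duplicates vs DMSO controls. Resazurin→resorufin fluorescence readout, ~3 h. EC50 by nonlinear fit; if >10 μM, % inhibition at 10 μM reported.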

In general, pEC50 refers to the negative decadic logarithm of the EC50, by convention in mol/L. As a reminder, the inhibition is the share of the control response that was lost under treatment. With `c1ccc(CNCc2cncc(-c3cnc4[nH]nc(-c5cc6ccccc6[nH]5)c4c3)c2)cc1` [Compound 250, 1-(5-(3-(1H-Indol-2-yl)-1H-pyrazolo[3,4-b]pyridin-5-yl)pyridin-3-yl)-N-benzylmethanamine], in assay [1], the pEC50 is 5.53. In the assay on SW480 colon cancer cells, the pEC50 is below 5.00 and the inhibition at 10 µM was 12.2%.
The like results for `c1cc(-c2ccncc2)c2cc(-c3n[nH]c4ncc(-c5ccncc5)cc34)[nH]c2c1` [Compound 111, 5-(Pyridin-4-yl)-3-(4-(pyridin-4-yl)-1H-indol-2-yl)-1H-pyrazolo[3,4-b]pyridine] were, in that order, 5.56, below 5.00 and 36.4%.
In assay [1], `O=C(Nc1cncc(-c2cnc3[nH]nc(-c4cc5c(-c6ccccc6F)cccc5[nH]4)c3c2)c1)C1CCCC1` [Compound 66, N-(5-(3-(4-(2-Fluorophenyl)-1H-indol-2-yl)-1H-pyrazolo[3,4-b]pyridin-5-yl)pyridin-3-yl)cyclopentanecarboxamide] had a pEC50 of 5.19. For the same compound, in the assay on SW480 colon cancer cells, the pEC50 was below 5.00 and the inhibition at 10 µM is 53.2%.
Take `O=C(Nc1cncc(-c2cnc3[nH]nc(-c4cc5c(-c6ccccn6)cccc5[nH]4)c3c2)c1)c1ccccc1` [Compound 128, N-(5-(3-(4-(Pyridin-2-yl)-1H-indol-2-yl)-1H-pyrazolo[3,4-b]pyridin-5-yl)pyridin-3-yl)benzamide]: the negative-log EC50 (pEC50) is 6.33 in assay [1] and 6.15 with SW480 colon cancer cells.
Regarding `Fc1ccc(-c2cccc3[nH]c(-c4n[nH]c5ncc(-c6cncc(CN7CCCCC7)c6)cc45)cc23)cc1` [Compound 36, 3-(4-(4-Fluorophenyl)-1H-indol-2-yl)-5-(5-(piperidin-1-ylmethyl)pyridin-3-yl)-1H-pyrazolo[3,4-b]pyridine], the pEC50 in assay [1] was 5.61; with SW480 colon cancer cells, below 5.00. Further, the inhibition at 10 µM in the assay on SW480 colon cancer cells was 59.2%.
Take `CC(C)(C)CC(=O)Nc1cncc(-c2cnc3[nH]nc(-c4cc5c(-c6ccccc6F)cccc5[nH]4)c3c2)c1` [Compound 61, N-(5-(3-(4-(2-Fluorophenyl)-1H-indol-2-yl)-1H-pyrazolo[3,4-b]pyridin-5-yl)pyridin-3-yl)-3,3-dimethylbutanamide]: the pEC50 in assay [1] was 5.30. For the same compound, in the assay with SW480 colon cancer cells, the pEC50 is below 5.00 and the inhibition at 10 µM stood at 25.2%.
Regarding `Cc1ccncc1-c1cnc2[nH]nc(-c3cc4c(-c5cc(F)cc(CNS(C)(=O)=O)c5)cccc4[nH]3)c2c1` [Compound 455, N-(3-Fluoro-5-(2-(5-(4-methylpyridin-3-yl)-1H-pyrazolo[3,4-b]pyridin-3-yl)-1H-indol-4-yl)benzyl)methanesulfonamide], in assay [1], the pEC50 was below 5.00 and the inhibition at 10 µM stood at 43.9%. Further, in the assay on SW480 colon cancer cells, the pEC50 is below 5.00 and the inhibition at 10 µM worked out at 8.7%.
For `c1cncc(-c2cccc3[nH]c(-c4n[nH]c5ncc(-c6cncc(CN7CCCCC7)c6)cc45)cc23)c1` [Compound 84, 5-(5-(Piperidin-1-ylmethyl)pyridin-3-yl)-3-(4-(pyridin-3-yl)-1H-indol-2-yl)-1H-pyrazolo[3,4-b]pyridine], the figures for the pEC50 (in assay [1]; in the assay with SW480 colon cancer cells) were 5.22 and 5.07, respectively.
For `CCCC(=O)Nc1cncc(-c2cnc3[nH]nc(-c4cc5ccccc5[nH]4)c3c2)c1` [Compound 243, N-(5-(3-(1H-Indol-2-yl)-1H-pyrazolo[3,4-b]pyridin-5-yl)pyridin-3-yl) butyramide], in that order: 6.68 and 6.20.
The like results for `CC(C)Nc1cncc(-c2cnc3[nH]nc(-c4cc5c(-c6cccnc6)cccc5[nH]4)c3c2)c1` [Compound 81, N-Isopropyl-5-(3-(4-(pyridin-3-yl)-1H-indol-2-yl)-1H-pyrazolo[3,4-b]pyridin-5-yl)pyridin-3-amine] were, in that order, 5.85 and 5.43.
With `CS(=O)(=O)NCc1cc(F)cc(-c2cccc3[nH]c(-c4n[nH]c5ncc(-c6ccccn6)cc45)cc23)c1` [Compound 478, N-(3-Fluoro-5-(2-(5-(pyridin-2-yl)-1H-pyrazolo[3,4-b]pyridin-3-yl)-1H-indol-4-yl)benzyl)methanesulfonamide], the pEC50 in assay [1] is 5.62. Also, in the assay with SW480 colon cancer cells, the pEC50 was below 5.00 and the inhibition at 10 µM stood at 22.6%.
The like results for `Oc1cncc(-c2cnc3[nH]nc(-c4cc5c(-c6cccs6)cccc5[nH]4)c3c2)c1` [Compound 711, 5-(3-(4-(Thiophen-2-yl)-1H-indol-2-yl)-1H-pyrazolo[3,4-b]pyridin-5-yl) pyridin-3-ol] were, in that order, 6.34, below 5.00 and 10.3%.
For `CN(C)CCNc1cc(F)cc(-c2cccc3[nH]c(-c4n[nH]c5ncc(-c6cncc(OC7CCCCC7)c6)cc45)cc23)c1` [Compound 785, N^1-(3-(2-(5-(5-(Cyclohexyloxy)pyridin-3-yl)-1H-pyrazolo[3,4-b]pyridin-3-yl)-1H-indol-4-yl)-5-fluorophenyl)-N^2,N^2-dimethylethane-1,2-diamine], the values for the pEC50 (in assay [1]; in the assay on SW480 colon cancer cells) were 5.91 and 5.79, respectively.
On to `O=C(Nc1cncc(-c2cnc3[nH]nc(-c4cc5ccccc5[nH]4)c3c2)c1)C1CCCCC1` [Compound 249, N-(5-(3-(1H-Indol-2-yl)-1H-pyrazolo[3,4-b]pyridin-5-yl)pyridin-3-yl) cyclohexanecarboxamide], for which the pEC50 (in assay [1]; in the assay on SW480 colon cancer cells) was below 5.00 throughout. Further, the inhibition at 10 µM is 0% in assay [1] and 6.7% in the assay on SW480 colon cancer cells.
`CN(C)CCNc1cc(F)cc(-c2cccc3[nH]c(-c4n[nH]c5ncc(-c6cncc(N)c6)cc45)cc23)c1` [Compound 425, N^1-(3-(2-(5-(5-Aminopyridin-3-yl)-1H-pyrazolo[3,4-b]pyridin-3-yl)-1H-indol-4-yl)-5-fluorophenyl)-N^2,N^2-dimethylethane-1,2-diamine]: the results for the pEC50 (in assay [1]; in the assay on SW480 colon cancer cells) were 6.48 and 6.28, respectively.
As for `c1cncc(-c2cnc3[nH]nc(-c4cc5c(-c6cccnc6)cccc5[nH]4)c3c2)c1` [Compound 74, 5-(Pyridin-3-yl)-3-(4-(pyridin-3-yl)-1H-indol-2-yl)-1H-pyrazolo[3,4-b]pyridine], the results for the pEC50 (in assay [1]; in the assay with SW480 colon cancer cells) were 6.39 and 5.45, respectively.
In turn, `O=C(Nc1cncc(-c2cnc3[nH]nc(-c4cc5c(-c6ccncc6)cccc5[nH]4)c3c2)c1)C1CCCCC1` [Compound 115, N-(5-(3-(4-(Pyridin-4-yl)-1H-indol-2-yl)-1H-pyrazolo[3,4-b]pyridin-5-yl)pyridin-3-yl)cyclohexanecarboxamide] gave a pEC50 in assay [1] of 5.30. Also, in the assay on SW480 colon cancer cells, the pEC50 was below 5.00 and the inhibition at 10 µM is 24.3%.
Regarding `CN(C)CCNc1cc(F)cc(-c2cccc3[nH]c(-c4n[nH]c5ncc(-c6cncnc6)cc45)cc23)c1` [Compound 449, N^1-(3-Fluoro-5-(2-(5-(pyrimidin-5-yl)-1H-pyrazolo[3,4-b]pyridin-3-yl)-1H-indol-4-yl)phenyl)-N^2,N^2-dimethylethane-1,2-diamine], the pEC50 was 5.94 in assay [1] and 5.89 with SW480 colon cancer cells.
The compound `c1cncc(-c2cnc3[nH]nc(-c4cc5ccccc5[nH]4)c3c2)c1` [Compound 231, 3-(1H-Indol-2-yl)-5-(pyridin-3-yl)-1H-pyrazolo[3,4-b]pyridine] gave a pEC50 in assay [1] of 5.06. In addition, in the assay with SW480 colon cancer cells, the pEC50 was below 5.00 and the inhibition at 10 µM stood at 9.1%.
For `CN1CCN(c2cccc3[nH]c(-c4n[nH]c5ncc(-c6ccncc6)cc45)cc23)CC1` [Compound 218, 3-(4-(4-Methylpiperazin-1-yl)-1H-indol-2-yl)-5-(pyridin-4-yl)-1H-pyrazolo[3,4-b]pyridine], the figures for the pEC50 (in assay [1]; with SW480 colon cancer cells) were 5.42 and 5.04, respectively.
For `CN(C)CCNc1cc(F)cc(-c2cccc3[nH]c(-c4n[nH]c5ncc(-c6cncc(NC(=O)C7CCC7)c6)cc45)cc23)c1` [Compound 443, N-(5-(3-(4-(3-((2-(Dimethylamino)ethyl)amino)-5-fluorophenyl)-1H-indol-2-yl)-1H-pyrazolo[3,4-b]pyridin-5-yl)pyridin-3-yl)cyclobutanecarboxamide], in that order: 6.00 and 5.91.
In the case of `CC(C)(C)C(=O)Nc1cncc(-c2cnc3[nH]nc(-c4cc5c(-c6cccnc6)cccc5[nH]4)c3c2)c1` [Compound 78, N-(5-(3-(4-(Pyridin-3-yl)-1H-indol-2-yl)-1H-pyrazolo[3,4-b]pyridin-5-yl)pyridin-3-yl)pivalamide], in assay [1], the pEC50 is below 5.00 and the inhibition at 10 µM came out at 24.2%. Besides, the pEC50 with SW480 colon cancer cells is 5.76.
On to `CC(C)CC(=O)Nc1cncc(-c2cnc3[nH]nc(-c4cc5c(N6CCN(C)CC6)cccc5[nH]4)c3c2)c1` [Compound 202, 3-Methyl-N-(5-(3-(4-(4-methylpiperazin-1-yl)-1H-indol-2-yl)-1H-pyrazolo[3,4-b]pyridin-5-yl)pyridin-3-yl)butanamide], for which the pEC50 was 5.64 in assay [1] and 5.32 in the assay on SW480 colon cancer cells.
For `CCNCc1cncc(-c2cnc3[nH]nc(-c4cc5c(-c6ccccc6F)cccc5[nH]4)c3c2)c1` [Compound 52, N-((5-(3-(4-(2-Fluorophenyl)-1H-indol-2-yl)-1H-pyrazolo[3,4-b]pyridin-5-yl)pyridin-3-yl)methyl)ethanamine], in that order: 6.00 and 5.57.
